Experimental data published in patent US20240083857A1, “2-Methyl-Quinazolines” (Bayer Pharma Aktiengesellschaft, priority 2017, published 2024).

Experiments:
[1] = molecular target: human SOS1 (nucleotide exchange of K-Ras^G12C) (Homo sapiens, UniProt Q07889); assay: Biochemical assay 2: K-Ras^G12C activation assay by hSOS1 at high GTP concentration (HTRF); conditions: high GTP; for inhibition at 20 µM: read-out: Assay 2 (KRAS-Activation by SOS high GTP) activity expressed as % inhibition at 20 μM; for IC50: read-out: Assay 2 (KRAS-Activation by SOS high GTP) activity expressed as IC50
[2] = molecular target: human SOS1 (loading of human K-Ras^G12C-GDP with fluorescent GTP-analog) (Homo sapiens, UniProt Q07889); assay: Biochemical assay 3: K-Ras^G12C activation assay by hSOS1 (HTRF); conditions: no GTP; for inhibition at 20 µM: read-out: Assay 3 (KRAS-Activation by SOS no GTP) activity expressed as % inhibition at 20 μM; for IC50: read-out: Assay 3 (KRAS-Activation by SOS no GTP) activity expressed as IC50
[3] = molecular target: K-Ras^G12C : hSOS1 interaction (Homo sapiens, UniProt Q07889); assay: Biochemical assay 1: K-Ras^G12C interaction assay with hSOS1 (HTRF); format: binding; conditions: for inhibition at 20 µM: read-out: Assay 1 (KRAS-SOS Interaction) activity expressed as % inhibition at 20 μM; for IC50: read-out: Assay 1 (KRAS-SOS Interaction) activity expressed as IC50

For `CCCOc1ccc(Cl)cc1-c1ccc([C@H](C)Nc2nc(C)nc3cc(OC)c(OC)cc23)s1` (stereo in doubt) [Example 144, N-{1-[5-(5-chloro-2-propoxyphenyl)thiophen-2-yl]ethyl}-6,7-dimethoxy-2-methylquinazolin-4-amine], the inhibition at 20 µM [1] was 12%, the inhibition at 20 µM [2] was 19% and the inhibition at 20 µM [3] was 30%.

In the case of `COc1cc2nc(C)nc(N[C@@H](C)c3ccc(-c4ccccc4Oc4ccccc4)s3)c2cc1OC` (stereo in doubt) [Example 158, 6,7-dimethoxy-2-methyl-N-{1-[5-(2-phenoxyphenyl)thiophen-2-yl]ethyl}quinazolin-4-amine], the inhibition at 20 µM [1] is reported as 4%, the inhibition at 20 µM [2] is reported as 10% and the inhibition at 20 µM [3] is reported as 29%.

Compound `COc1cc2nc(C)nc(N[C@@H](C)c3ccc(-c4ccc(NC(=O)OC(C)(C)C)cc4)s3)c2cc1OC` (stereo in doubt) [Example 159, tert-butyl [4-(5-{1-[(6,7-dimethoxy-2-methylquinazolin-4-yl)amino]ethyl}thiophen-2-yl)phenyl]carbamate] has an inhibition at 20 µM [1] of 27%, an inhibition at 20 µM [2] of 35% and an inhibition at 20 µM [3] of 43%.

`COc1cc2nc(C)nc(N[C@@H](C)c3ccc(-c4ccc5c(c4)OCCN5C)s3)c2cc1OC` (stereo in doubt) [Example 164, 6,7-dimethoxy-2-methyl-N-{1-[5-(4-methyl-3,4-dihydro-2H-1,4-benzoxazin-7-yl)thiophen-2-yl]ethyl}quinazolin-4-amine] was tested, and the inhibition at 20 µM [1] was 19%, the inhibition at 20 µM [2] was 22% and the inhibition at 20 µM [3] was 41%.

`COc1cc2nc(C)nc(N[C@@H](C)c3ccc(-c4cccc(OCC5CC5)c4)s3)c2cc1OC` (stereo in doubt) [Example 170, N-[1-{5-[3-(cyclopropylmethoxy)phenyl]thiophen-2-yl}ethyl]-6,7-dimethoxy-2-methylquinazolin-4-amine] was tested, and the inhibition at 20 µM [1] was 7%, the inhibition at 20 µM [2] was 15% and the inhibition at 20 µM [3] was 45%.

`Cc1nc(N[C@H](C)c2ccccc2)c2cc(Br)ccc2n1` [Example 29, 6-bromo-2-methyl-N-[(1R)-1-phenylethyl]quinazolin-4-amine] was tested, and the IC50 [1] was 10900 nM, the inhibition at 20 µM [2] was 44% and the IC50 [3] was 10200 nM.

`Cc1nc(N[C@H](C)c2ccc(F)cc2)c2cc(Br)ccc2n1` [Example 31, 6-bromo-N-[(1R)-1-(4-fluorophenyl)ethyl]-2-methylquinazolin-4-amine] gave an IC50 [1] of 9510 nM, an inhibition at 20 µM [2] of 49% and an IC50 [3] of 8590 nM.

Work on `COc1cc2nc(C)nc(N[C@H](C)c3cccc(-c4cc(N)ccc4C)c3)c2cc1OC` [Example 36, N-[(1R)-1-(5′-amino-2′-methylbiphenyl-3-yl)ethyl]-6,7-dimethoxy-2-methylquinazolin-4-amine] yielded an IC50 [1] of 1000 nM, an IC50 [2] of 696 nM and an IC50 [3] of 542 nM.

`COc1cc2nc(C)nc(N[C@H](C)c3cccc(-c4cncnc4)c3)c2cc1OC` [Example 37, 6,7-dimethoxy-2-methyl-N-{(1R)-1-[3-(pyrimidin-5-yl)phenyl]ethyl}quinazolin-4-amine] was tested, and the IC50 [1] was 1850 nM, the IC50 [2] was 2690 nM and the IC50 [3] was 1540 nM.

`COc1cc2nc(C)nc(N[C@H](C)c3cccc(-c4cccc5cnccc45)c3)c2cc1OC` [Example 39, N-{(1R)-1-[3-(isoquinolin-5-yl)phenyl]ethyl}-6,7-dimethoxy-2-methylquinazolin-4-amine] gave an IC50 [1] of 1830 nM, an IC50 [2] of 3050 nM and an IC50 [3] of 1460 nM.

With `COc1cc2nc(C)nc(N[C@H](C)c3cccc(-c4c(F)ccc(C)c4Cl)c3)c2cc1OC` [Example 40, N-[(1R)-1-(2′-chloro-6′-fluoro-3′-methylbiphenyl-3-yl)ethyl]-6,7-dimethoxy-2-methylquinazolin-4-amine] the IC50 [1] was 1750 nM, the IC50 [2] was 4550 nM and the IC50 [3] was 3850 nM.

`COc1cc2nc(C)nc(N[C@H](C)c3cccc(-c4cncc(C)c4)c3)c2cc1OC` [Example 41, 6,7-dimethoxy-2-methyl-N-{(1R)-1-[3-(5-methylpyridin-3-yl)phenyl]ethyl}quinazolin-4-amine] showed an IC50 [1] of 1400 nM, an IC50 [2] of 1670 nM and an IC50 [3] of 972 nM.
